Assay results as given in PubChem BioAssay (NCI).
Several values for one entry are separate records, joined by “and”; a condition that tells them apart may be missing. Equal values may be shown once.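 1) Cells in 96-well plates. 2) Compound, 48 h, 5 concentrations. 3) Linear interpolation between surrounding doses. 4) Unreached endpoint = highest concentration. GI50 marks 50% less growth. TGI: concentration producing complete growth inhibition.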

system: MOLT-4 leukemia; test: NCI tumour cell line growth inhibition, 48 h

Row | Compound | TGI | GI50
1 | CN1CCc2ccccc2C(C(=O)c2ccc3c(c2)OCO3)C1=O (stereo not drawn) | > 100 µM | 
2 | Cc1cc(Cl)ccc1NC(=O)C1C(=O)N(c2ccc(Cl)cc2C)C(=O)/C1=N\NC(N)=S (stereo not drawn) | 38 µM | 
3 | COc1ccc(C2=Nn3c(nnc3-n3nc(C)cc3C)SC2)cc1 | > 100 µM | 116 nM
4 | COc1ccc(Br)c(C(=O)N2CCc3ccccc32)c1N | > 100 µM | 
5 | Cc1ccc2ccc(-c3ccccc3)c3c2c1C(=O)c1ccccc1C3=O | > 100 µM | 
6 | OCC(O)C(O)C(O)c1nn(-c2ccc(F)cc2)c2nc3cc(Cl)c(Cl)cc3nc12 (stereo not drawn) | 48.4 µM | 
7 | CSC1=Nc2c(c(C)c(-c3ccccc3)n2COC(CO)CO)C2=NC(=O)CC(C)N12 (stereo not drawn) | > 100 µM | > 100000 nM
8 | COc1ccc(C2Cc3cc(OC)c(OC)c(OC)c3C2)cc1 (stereo not drawn) | 61.6 µM | 

system: NCI-H226 lung; test: NCI tumour cell line growth inhibition, 48 h

Row | Compound | TGI | GI50
9 | CC1(C)OC(=O)C(=C2CCC(C(=O)Nc3cccc(C(F)(F)F)c3)N2)C(=O)O1 (stereo not drawn) | > 100 µM | 
10 | CN(C)c1ccc(C(O)C2=CC(=O)c3ccccc3C2=O)cc1 (stereo not drawn) | 14.2 µM | 3.01 µM
11 | Clc1ccc(CN2CCCN(Cc3ccc(Cl)cc3)C2c2cc3ccccc3c3ccccc23)cc1 | > 100 µM | 
12 | CCN(c1ccccc1)[C@H]1C(=O)N(c2ccc([N+](=O)[O-])cc2)[C@H]1c1ccc(OC)cc1 | > 100 µM | 
13 | COc1ccc(/C=C\c2cc(OC)c(OC)c(OC)c2)cc1 | 0.222 µM and 0.0693 µM | 
14 | COc1ccc(C2NC(=S)NC3=C2CCOc2c3ccc3ccccc23)cc1 (stereo not drawn) | > 100 µM | 58.5 µM
15 | COc1cc(N(C)C)c(OC)cc1C=C1C=CC=C1 | > 100 µM | 
16 | C[C@H]1CC[P+](C)(c2ccccc2)C1 (stereo partly drawn) | > 100 µM | 
17 | C=C1CC[C@H]2C(C)=CC[C@H]3C(=C)C(=O)O[C@@H]3[C@@H]12 | > 100 µM | 
18 | COc1cccc(/C=N\NC(=O)C(C)SC(C)C(=O)N/N=C/c2cccc(OC)c2)c1 (stereo not drawn) | 47.5 µM | 
19 | O=[N+]([O-])/C=C/c1ccc(Cl)cc1[N+](=O)[O-] | 6.96 µM | 2.43 µM
20 | Cc1cc(C)nc(NS(=O)(=O)c2ccc(Nc3c4ccccc4nc4c(C(=O)NCCN(C)C)cccc34)cc2)n1 | 6.21 µM | 
21 | COc1cc2c(c(OC)c1OC)C(=O)NCCC2 | > 100 µM | 
22 | Cc1cc(NN=C(c2ccc(O)cc2)c2ccc(O)cc2)c([N+](=O)[O-])cc1[N+](=O)[O-] | 40.1 µM | 7.76 µM
23 | Nc1ccccc1C#Cc1ccccc1C#Cc1cccs1 | 43.3 µM | 17.7 µM
24 | COc1ccc(-c2cc(/C=C/C(=O)c3ccc(N)cc3)[nH]n2)cc1 | 5.57 µM | 2.05 µM
25 | CCOC(=O)c1c(NC(=O)c2ccc(Cl)cc2)sc2c(CN(C)C)c(O)ccc12 | > 100 µM | 18.3 µM

Row | Compound | TGI | GI50
26 | OCC(O)C(O)C(O)C(O)c1nnc2c(-c3ccccc3)nc3ccccc3n12 (stereo not drawn) | > 100 µM | > 100 µM
27 | O=C(/C=C/c1ccccc1O)c1ccccc1Cl | > 100 µM | 
28 | CCCCC1(C(NC(=O)c2ccccc2Cl)c2ccncc2)C(=O)N(c2ccccc2)N(c2ccccc2)C1=O (stereo not drawn) | > 100 µM | 
29 | N#Cc1cc(S(=O)(=O)Nc2nc3cc(Cl)ccc3o2)c(SCc2ccccc2)cc1Cl | 43.4 µM | 17.8 µM
30 | COc1ccc(/C=N/NS(=O)(=O)c2ccccc2)cc1 | > 100 µM | 
31 | C1=CC2CCC1CN2CCC1CNc2ccccc21 (stereo not drawn) | > 100 µM | 
32 | Cc1ccc(OC(=O)N2C/C(=C\c3ccccc3)C(=O)/C(=C/c3ccccc3)C2)cc1 | > 100 µM | 
33 | O=C1C(=O)C2(CC1S(=O)(=O)c1ccccc1)c1ccccc1-c1ccccc12 (stereo not drawn) | 82.6 µM | 
34 | O=c1cccc(Cl)[nH]1 | > 100 µM | 
35 | Cc1ccc(S(=O)C(C)C(Cl)c2ccccc2)cc1 (stereo not drawn) | > 100 µM | 
36 | CN1CCc2ccccc2C(C(=O)c2ccc3c(c2)OCO3)C1=O (stereo not drawn) | > 100 µM | 
37 | OCCN(CO)CO | > 100 µM | 
38 | COc1ccc(C2=Nn3c(nnc3-n3nc(C)cc3C)SC2)cc1 | > 100 µM | 
39 | COc1ccc(Br)c(C(=O)N2CCc3ccccc32)c1N | > 100 µM | 
40 | COc1ccc(C)cc1NC(=S)C#N | > 100 µM | 
41 | Cc1ccc2ccc(-c3ccccc3)c3c2c1C(=O)c1ccccc1C3=O | > 100 µM | 
42 | OCC(O)C(O)C(O)c1nn(-c2ccc(F)cc2)c2nc3cc(Cl)c(Cl)cc3nc12 (stereo not drawn) | 49.4 µM | 
